Laboratory results reported in US4371464A, “Dipeptide sweetener” (Stamicarbon, B.V., priority 1980, dated 1983).

Assay: organoleptic research (sweetness compared with sucrose)
Conditions: reference sucrose

With `COC(=O)[C@@H](NC(=O)[C@H](CC(=O)O)NC(=O)NC=O)c1ccccc1` [II, N-(N'-formyl)-carbamyl-L-alpha-aspartyl-L-phenylglycinemethylester] the “sweetness relative to sucrose” value was 200 times sweeter than sucrose.
